Paper PMC10999543, “Identification of kinase modulators as host-directed therapeutics against intracellular methicillin-resistant Staphylococcus aureus” (Frontiers in Cellular and Infection Microbiology, 2024)
Where two headings read alike, the source gives them in different places.

Experiments:
HeLa cells = test: Compound screen by flow cytometry: HeLa cell count as surrogate readout of cell viability (z-scoreHeLa); assay type: cell-based, human; conditions: for cell count rep 1 / cell count rep 2 / cell count rep 3 / z-scoreHeLa mean / z-scoreHeLa rep 1 / z-scoreHeLa rep 2 / z-scoreHeLa rep 3: HeLa cell count; for cell count rep 1 / z-scoreHeLa rep 1: replicate 1; for cell count rep 2 / z-scoreHeLa rep 2: replicate 2; for cell count rep 3 / z-scoreHeLa rep 3: replicate 3; for z-scoreHeLa mean: mean of 3 replicates; for all read-outs here: test concentration or dose not given here
Procedure, shortened: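 The viability surrogate was the count of fixed HeLa cells by flow cytometry, converted to z-scores against DMSO controls with values deviating two-fold excluded. Before counting, cells had been infected with MRSA for 1 h and cleared of extracellular bacteria with gentamicin. They were then exposed overnight to kinase inhibitors in triplicate.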

intracellular MRSA = assay type: cell-based, Staphylococcus aureus; conditions: for %GFP+ rep 1 / %GFP+ rep 2 / %GFP+ rep 3 / z-scoreMRSA+ mean / z-scoreMRSA+ rep 1 / z-scoreMRSA+ rep 2 / z-scoreMRSA+ rep 3: MRSA-infected HeLa cells; for %GFP+ rep 1 / z-scoreMRSA+ rep 1: replicate 1; for %GFP+ rep 2 / z-scoreMRSA+ rep 2: replicate 2; for %GFP+ rep 3 / z-scoreMRSA+ rep 3: replicate 3; for z-scoreMRSA+ mean: mean of 3 replicates
Procedure, shortened: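 Values are z-scores: GFP-positive HeLa percentage and event count per well against plate statistics, minus the mean DMSO z-score. Wells deviating two-fold from controls were left out of plate means. Infection was at a mean MOI of 6.8, with an overnight compound exposure.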

[1] = PKIS compound screen, Yes/No call on z-scoreHeLa
[2] = PKIS compound screen, Yes/No call (effect without cell death)
[3] = PKIS compound screen, Yes/No call on z-scoreMRSA+
[4] = Yes/No: effect without cell death
Throughout, for %GFP+ rep 1: test concentration or dose not given here.
Throughout, for %GFP+ rep 2: test concentration or dose not given here.
Throughout, for %GFP+ rep 3: test concentration or dose not given here.
Throughout, for effect: test concentration or dose not given here.
Throughout, for z-scoreMRSA+ mean: test concentration or dose not given here.
Throughout, for z-scoreMRSA+ rep 1: test concentration or dose not given here.
Throughout, for z-scoreMRSA+ rep 2: test concentration or dose not given here.
Throughout, for z-scoreMRSA+ rep 3: test concentration or dose not given here.

CC(C)S(=O)(=O)N1CCN(Cc2ccc3c(c2)nc(NC(=O)c2ccsc2)n3C[C@H](O)c2ccccc2)CC1 [GW635815X]
cell count rep 1 (HeLa cells; PKIS compound screen raw data): 31634 | cell count rep 2 (HeLa cells; PKIS compound screen raw data): 26865 | cell count rep 3 (HeLa cells; PKIS compound screen raw data): 24254 | z-scoreHeLa mean (HeLa cells; PKIS compound screen): 0.52 | z-scoreHeLa rep 1 (HeLa cells; PKIS compound screen): 0.24 | z-scoreHeLa rep 2 (HeLa cells; PKIS compound screen): 0.27 | z-scoreHeLa rep 3 (HeLa cells; PKIS compound screen): 1.04 | cell death (HeLa cells; [1]): No | %GFP+ rep 1 (intracellular MRSA; PKIS compound screen raw data): 12.8% | %GFP+ rep 2 (intracellular MRSA; PKIS compound screen raw data): 14.2% | %GFP+ rep 3 (intracellular MRSA; PKIS compound screen raw data): 14.5% | z-scoreMRSA+ mean (intracellular MRSA; PKIS compound screen): -1.62 | z-scoreMRSA+ rep 1 (intracellular MRSA; PKIS compound screen): -1.60 | z-scoreMRSA+ rep 2 (intracellular MRSA; PKIS compound screen): -1.42 | z-scoreMRSA+ rep 3 (intracellular MRSA; PKIS compound screen): -1.84 | hit (intracellular MRSA; [2]): No | effect (intracellular MRSA; [3]): No

CCS(=O)(=O)c1ccc(OC)c(Nc2nccc(N(C)c3ccc4c(C)n[nH]c4c3)n2)c1 [GW654652C]
cell count rep 1 (HeLa cells; PKIS compound screen raw data): 21654 | cell count rep 2 (HeLa cells; PKIS compound screen raw data): 25320 | cell count rep 3 (HeLa cells; PKIS compound screen raw data): 35112 | z-scoreHeLa mean (HeLa cells; PKIS compound screen): -0.80 | z-scoreHeLa rep 1 (HeLa cells; PKIS compound screen): 0.23 | z-scoreHeLa rep 2 (HeLa cells; PKIS compound screen): -1.77 | z-scoreHeLa rep 3 (HeLa cells; PKIS compound screen): -0.86 | cell death (HeLa cells; [1]): No | %GFP+ rep 1 (intracellular MRSA; PKIS compound screen raw data): 13.7% | %GFP+ rep 2 (intracellular MRSA; PKIS compound screen raw data): 14.6% | %GFP+ rep 3 (intracellular MRSA; PKIS compound screen raw data): 13.9% | z-scoreMRSA+ mean (intracellular MRSA; PKIS compound screen): -1.43 | z-scoreMRSA+ rep 1 (intracellular MRSA; PKIS compound screen): -1.32 | z-scoreMRSA+ rep 2 (intracellular MRSA; PKIS compound screen): -1.18 | z-scoreMRSA+ rep 3 (intracellular MRSA; PKIS compound screen): -1.79 | hit (intracellular MRSA; [2]): No | effect (intracellular MRSA; [3]): No

CCS(=O)(=O)c1ccc(OC)c(Nc2ncc(-c3cccc(-c4ccccc4F)c3)o2)c1 [GW678313X]
cell count rep 1 (HeLa cells; PKIS compound screen raw data): 18271 | cell count rep 2 (HeLa cells; PKIS compound screen raw data): 31542 | cell count rep 3 (HeLa cells; PKIS compound screen raw data): 48427 | z-scoreHeLa mean (HeLa cells; PKIS compound screen): 0.12 | z-scoreHeLa rep 1 (HeLa cells; PKIS compound screen): -0.28 | z-scoreHeLa rep 2 (HeLa cells; PKIS compound screen): -0.61 | z-scoreHeLa rep 3 (HeLa cells; PKIS compound screen): 1.26 | cell death (HeLa cells; [1]): No | %GFP+ rep 1 (intracellular MRSA; PKIS compound screen raw data): 14.1% | %GFP+ rep 2 (intracellular MRSA; PKIS compound screen raw data): 12.8% | %GFP+ rep 3 (intracellular MRSA; PKIS compound screen raw data): 13.1% | z-scoreMRSA+ mean (intracellular MRSA; PKIS compound screen): -1.65 | z-scoreMRSA+ rep 1 (intracellular MRSA; PKIS compound screen): -1.19 | z-scoreMRSA+ rep 2 (intracellular MRSA; PKIS compound screen): -1.72 | z-scoreMRSA+ rep 3 (intracellular MRSA; PKIS compound screen): -2.04 | hit (intracellular MRSA; [2]): No | effect (intracellular MRSA; [3]): No

COC(=O)Nc1nc2ccc(Oc3ccc(NC(=O)Nc4cc(C(F)(F)F)ccc4F)cn3)cc2[nH]1 [GW681170A]
cell count rep 1 (HeLa cells; PKIS compound screen raw data): 5819 | cell count rep 2 (HeLa cells; PKIS compound screen raw data): 4937 | cell count rep 3 (HeLa cells; PKIS compound screen raw data): 6470 | cell death (HeLa cells; Yes/No call from z-scoreHeLa): No | z-scoreHeLa mean (HeLa cells; compound screen): 0.78 | z-scoreHeLa rep 1 (HeLa cells; compound screen): 1.06 | z-scoreHeLa rep 2 (HeLa cells; compound screen): 0.49 | z-scoreHeLa rep 3 (HeLa cells; compound screen): 0.78 | %GFP+ rep 1 (intracellular MRSA; PKIS compound screen raw data): 25.2% | %GFP+ rep 2 (intracellular MRSA; PKIS compound screen raw data): 20.8% | %GFP+ rep 3 (intracellular MRSA; PKIS compound screen raw data): 21.7% | effect (intracellular MRSA; Yes/No call from z-scoreMRSA+): No | hit (intracellular MRSA; [4]): No | z-scoreMRSA+ mean (intracellular MRSA; compound screen): -0.20 | z-scoreMRSA+ rep 1 (intracellular MRSA; compound screen): -0.0173 | z-scoreMRSA+ rep 2 (intracellular MRSA; compound screen): -0.44 | z-scoreMRSA+ rep 3 (intracellular MRSA; compound screen): -0.15

Cc1n[nH]c2cc(Nc3ccnc(Nc4cccc(CN5CCOCC5)c4)n3)ccc12 [GW682569X]
cell count rep 1 (HeLa cells; PKIS compounds raw data): 2071 | cell count rep 2 (HeLa cells; PKIS compounds raw data): 1754 | cell count rep 3 (HeLa cells; PKIS compounds raw data): 4807 | cell death (HeLa cells; Yes/No call from z-scoreHeLa): No | z-scoreHeLa mean (HeLa cells; compound screen): -1.79 | z-scoreHeLa rep 1 (HeLa cells; compound screen): -2.45 | z-scoreHeLa rep 2 (HeLa cells; compound screen): -1.90 | z-scoreHeLa rep 3 (HeLa cells; compound screen): -1.03 | %GFP+ rep 1 (intracellular MRSA; PKIS compounds raw data): 15.4% | %GFP+ rep 2 (intracellular MRSA; PKIS compounds raw data): 15.0% | %GFP+ rep 3 (intracellular MRSA; PKIS compounds raw data): 13.7% | effect (intracellular MRSA; Yes/No call from z-scoreMRSA+): No | hit (intracellular MRSA; [4]): No | z-scoreMRSA+ mean (intracellular MRSA; compound screen): 0.19 | z-scoreMRSA+ rep 1 (intracellular MRSA; compound screen): 0.71 | z-scoreMRSA+ rep 2 (intracellular MRSA; compound screen): 0.50 | z-scoreMRSA+ rep 3 (intracellular MRSA; compound screen): -0.65

O=C(Nc1ccc(Oc2ccc3nc(NC(=O)c4ccco4)[nH]c3c2)cc1)Nc1cc(C(F)(F)F)ccc1F [GW683134A]
cell count rep 1 (HeLa cells; PKIS compound screen raw data): 24828 | cell count rep 2 (HeLa cells; PKIS compound screen raw data): 19604 | cell count rep 3 (HeLa cells; PKIS compound screen raw data): 15141 | cell death (HeLa cells; Yes/No call from z-scoreHeLa): No | z-scoreHeLa mean (HeLa cells; compound screen): -0.87 | z-scoreHeLa rep 1 (HeLa cells; compound screen): -0.91 | z-scoreHeLa rep 2 (HeLa cells; compound screen): -0.97 | z-scoreHeLa rep 3 (HeLa cells; compound screen): -0.74 | %GFP+ rep 1 (intracellular MRSA; PKIS compound screen raw data): 9.6% | %GFP+ rep 2 (intracellular MRSA; PKIS compound screen raw data): 11.2% | %GFP+ rep 3 (intracellular MRSA; PKIS compound screen raw data): 12.6% | effect (intracellular MRSA; Yes/No call from z-scoreMRSA+): Yes | hit (intracellular MRSA; [4]): Yes | z-scoreMRSA+ mean (intracellular MRSA; compound screen): -2.35 | z-scoreMRSA+ rep 1 (intracellular MRSA; compound screen): -2.44 | z-scoreMRSA+ rep 2 (intracellular MRSA; compound screen): -2.24 | z-scoreMRSA+ rep 3 (intracellular MRSA; compound screen): -2.36

COC(=O)Nc1nc2ccc(Oc3ccc(NC(=O)Nc4cc(C(F)(F)F)ccc4F)cc3)cc2n1C [GW692089A]
cell count rep 1 (HeLa cells; PKIS compound screen raw data): 28483 | cell count rep 2 (HeLa cells; PKIS compound screen raw data): 25969 | cell count rep 3 (HeLa cells; PKIS compound screen raw data): 19864 | z-scoreHeLa mean (HeLa cells; PKIS compound screen): 0.00395 | z-scoreHeLa rep 1 (HeLa cells; PKIS compound screen): -0.29 | z-scoreHeLa rep 2 (HeLa cells; PKIS compound screen): 0.12 | z-scoreHeLa rep 3 (HeLa cells; PKIS compound screen): 0.18 | cell death (HeLa cells; [1]): No | %GFP+ rep 1 (intracellular MRSA; PKIS compound screen raw data): 16.9% | %GFP+ rep 2 (intracellular MRSA; PKIS compound screen raw data): 18.4% | %GFP+ rep 3 (intracellular MRSA; PKIS compound screen raw data): 19.6% | z-scoreMRSA+ mean (intracellular MRSA; PKIS compound screen): -0.41 | z-scoreMRSA+ rep 1 (intracellular MRSA; PKIS compound screen): -0.50 | z-scoreMRSA+ rep 2 (intracellular MRSA; PKIS compound screen): -0.28 | z-scoreMRSA+ rep 3 (intracellular MRSA; PKIS compound screen): -0.45 | hit (intracellular MRSA; [2]): No | effect (intracellular MRSA; [3]): No

Fc1cccc(COc2ccc(Nc3ncnc4cc(-c5ccc[nH]5)sc34)cc2Cl)c1 [GW693881A]
cell count rep 1 (HeLa cells; PKIS compounds raw data): 5481 | cell count rep 2 (HeLa cells; PKIS compounds raw data): 4577 | cell count rep 3 (HeLa cells; PKIS compounds raw data): 7047 | cell death (HeLa cells; Yes/No call from z-scoreHeLa): No | z-scoreHeLa mean (HeLa cells; compound screen): 0.30 | z-scoreHeLa rep 1 (HeLa cells; compound screen): 0.64 | z-scoreHeLa rep 2 (HeLa cells; compound screen): 0.23 | z-scoreHeLa rep 3 (HeLa cells; compound screen): 0.04 | %GFP+ rep 1 (intracellular MRSA; PKIS compounds raw data): 15.5% | %GFP+ rep 2 (intracellular MRSA; PKIS compounds raw data): 14.8% | %GFP+ rep 3 (intracellular MRSA; PKIS compounds raw data): 13.6% | effect (intracellular MRSA; Yes/No call from z-scoreMRSA+): No | hit (intracellular MRSA; [4]): No | z-scoreMRSA+ mean (intracellular MRSA; compound screen): 0.17 | z-scoreMRSA+ rep 1 (intracellular MRSA; compound screen): 0.75 | z-scoreMRSA+ rep 2 (intracellular MRSA; compound screen): 0.44 | z-scoreMRSA+ rep 3 (intracellular MRSA; compound screen): -0.68
